The text below walks through data of patent US10508104B2, “6-hydroxy-5-(phenyl/heteroarylsulfonyl)pyrimidin-4(1H)-one as APJ agonists” (Bristol-Myers Squibb Company, priority 2016, dated 2019).

Molecules are shown by their SMILES.

The assay deals with human APJ receptor (Homo sapiens (Human), UniProt P35414). In words: Intracellular cAMP accumulation assay (APJ hcAMP, HTRF). Particulars: HEK293 cells stably expressing human APJ receptor; inhibition of forskolin-mediated cAMP production; read-out: Human APJ cAMP EC50 Potency range. The class given is cell-based. The gist of the method: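 HEK293 cells stably expressing human APJ, 5,000 per well, incubated 30 min at rt with compound, […] and 2 μM forskolin. cAMP measured by HTRF against a cAMP standard curve as inhibition of forskolin-driven production. EC50 from variable-slope sigmoidal fit.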
Sequence of human APJ receptor (P35414 whole entry): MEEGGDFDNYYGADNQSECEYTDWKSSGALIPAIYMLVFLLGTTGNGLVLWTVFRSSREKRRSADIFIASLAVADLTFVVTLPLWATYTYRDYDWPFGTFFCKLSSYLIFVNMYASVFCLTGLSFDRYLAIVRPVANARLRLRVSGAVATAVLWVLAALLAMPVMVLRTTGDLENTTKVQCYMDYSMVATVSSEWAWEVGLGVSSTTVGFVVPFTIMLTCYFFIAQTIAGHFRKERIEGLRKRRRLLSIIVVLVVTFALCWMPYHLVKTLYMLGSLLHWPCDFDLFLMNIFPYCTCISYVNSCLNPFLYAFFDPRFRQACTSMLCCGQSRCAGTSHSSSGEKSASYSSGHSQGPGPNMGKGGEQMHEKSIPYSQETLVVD

`CCCCc1nc(=O)c(S(=O)(=O)c2ccc(-c3ccccc3C(=O)NC)cc2)c(O)n1[C@H](c1cccc(C#N)c1)C1CC1` [Example 530, 4′-({2-butyl-1-[(S)-(3-cyanophenyl)(cyclopropyl)methyl]-6-hydroxy-4-oxo-1,4-dihydropyrimidin-5-yl}sulfonyl)-N-methyl-[1,1′-biphenyl]-2-carboxamide]: the concentration giving a half-maximal response (EC50) was in the range of 0.01 to 10 nM.
On to `CCCCc1nc(=O)c(S(=O)(=O)c2ccc(-c3cccc(C(C)(C)O)c3)cc2)c(O)n1[C@@H](CC)c1cccc(C#N)c1` [Example 531, 3-[(1S)-1-(2-buty1-6-hydroxy-5-{[3′-(2-hydroxypropan-2-yl)-[1,1′-biphenyl]-4-yl]sulfonyl}-4-oxo-1,4-dihydropyrimidin-1-yl)propyl]benzonitrile], for which the concentration giving a half-maximal response (EC50) lay in the range of 10 to 100 nM.
To `CCCCc1nc(=O)c(S(=O)(=O)c2ccc(-c3ccc(C(C)(C)O)cc3)cc2)c(O)n1[C@@H](CC)c1cccc(C#N)c1` [Example 532, 3-[(1S)-1-(2-butyl-6-hydroxy-5-{[4′-(2-hydroxypropan-2-yl)-[1,1′-biphenyl]-4-yl]sulfonyl}-4-oxo-1,4-dihydropyrimidin-1-yl)propyl]benzonitrile] belongs 10 to 100 nM; to `CCCCc1nc(=O)c(S(=O)(=O)c2ccc(-c3ccccc3C(=O)NC3CC3)cc2)c(O)n1[C@H](c1cccc(C#N)c1)C1CC1` [Example 533, 4′-({2-butyl-1-[(S)-(3-cyanophenyl)(cyclopropyl)methyl]-6-hydroxy-4-oxo-1,4-dihydropyrimidin-5-yl}sulfonyl)-N-cyclopropyl-[1,1′-biphenyl]-2-carboxamide], 0.01 to 10 nM.
For `CCCCc1nc(=O)c(S(=O)(=O)c2ccc(-c3cccc(C(=O)NC4CC4)c3F)cc2)c(O)n1[C@@H](CC)c1cccc(C#N)c1` [Example 534, 4′-({2-butyl-1-[(1S)-1-(3-cyanophenyl)propyl]-6-hydroxy-4-oxo-1,4-dihydropyrimidin-5-yl}sulfonyl)-N-cyclopropyl-2-fluoro-[1,1′-biphenyl]-3-carboxamide], the EC50 lay within 0.01 to 10 nM.
On to `CCCCc1nc(=O)c(S(=O)(=O)c2ccc(-c3cccc4c3CNC4=O)cc2)c(O)n1[C@@H](CC)c1cccc(C#N)c1` [Example 535, 3-[(1S)-1-{2-butyl-6-hydroxy-4-oxo-5-[4-(1-oxo-2,3-dihydro-1H-isoindol-4-yl)benzenesulfonyl]-1,4-dihydropyrimidin-1-yl}propyl]benzonitrile], for which the EC50 lay in the range of 0.01 to 10 nM.
In the case of `CCCCc1nc(=O)c(S(=O)(=O)c2ccc(-c3cc(F)ncc3C)cc2)c(O)n1[C@@H](CC)c1cccc(C#N)c1` [Example 536, 3-[(1S)-1-{2-butyl-5-[4-(2-fluoro-5-methylpyridin-4-yl)benzenesulfonyl]-6-hydroxy-4-oxo-1,4-dihydropyrimidin-1-yl}propyl]benzonitriIe], the EC50 was in the range of 0.01 to 10 nM.
Consider `CCCCc1nc(=O)c(S(=O)(=O)c2ccc(-c3ccnc(F)c3C)cc2)c(O)n1[C@H]1CCc2c(C#N)cccc21` [Example 537, (1S)-1-{2-butyl-5-[4-(2-fluoro-3-methylpyridin-4-yl)benzenesulfonyl]-6-hydroxy-4-oxo-1,4-dihydropyrimidin-1-yl}-2,3-dihydro-1H-indene-4-carbonitrile], for which the EC50 was 0.01 to 10 nM.
For the molecule `CCCCc1nc(=O)c(S(=O)(=O)c2ccc(-c3cccc(F)c3C(N)=O)cc2)c(O)n1[C@@H](CC)c1cccc(C#N)c1` [Example 538, 4′-({2-butyl-1-[(1S)-1-(3-cyanophenyl)propyl]-6-hydroxy-4-oxo-1,4-dihydropyrimidin-5-yl}sulfonyl)-3-fluoro-[1,1′-biphenyl]-2-carboxamide], the EC50 lay in the range of 0.01 to 10 nM.
Regarding `CCCCc1nc(=O)c(S(=O)(=O)c2ccc(-c3cccnc3C)cc2)c(O)n1[C@H]1CCc2c(C#N)cccc21` [Example 539, (1S)-1-{2-butyl-6-hydroxy-5-[4-(2-methylpyridin-3-yl)benzenesulfonyl]-4-oxo-1,4-dihydropyrimidin-1-yl}-2,3-dihydro-1H-indene-4-carbonitrile], the concentration for a half-maximal effect (EC50) was 0.01 to 10 nM.
On to `CCCCc1nc(=O)c(S(=O)(=O)c2ccc(-c3ccc(F)nc3C)cc2)c(O)n1[C@H]1CCc2c(C#N)cccc21` [Example 540, (1S)-1-{2-butyl-5-[4-(6-fluoro-2-methylpyridin-3-yl)benzenesulfonyl]-6-hydroxy-4-oxo-1,4-dihydropyrimidin-1-yl}-2,3-dihydro-1H-indene-4-carbonitrile], for which the EC50 was 0.01 to 10 nM.
In the case of `CCCCc1nc(=O)c(S(=O)(=O)c2ccc(-c3ccncc3C)cc2)c(O)n1[C@H]1CCc2c(C#N)cccc21` [Example 541, (1S)-1-{2-butyl-6-hydroxy-5-[4-(3-methylpyridin-4-yl)benzenesulfonyl]-4-oxo-1,4-dihydropyrimidin-1-yl}-2,3-dihydro-1H-indene-4-carbonitrile], the half-maximal effective concentration (EC50) lay within 0.01 to 10 nM.
On to `CCCCc1nc(=O)c(S(=O)(=O)c2ccc(-c3ccnc(F)c3C)cc2)c(O)n1[C@@H]1CCc2ccc(C#N)cc21` [Example 542, (3R)-3-{2-butyl-5-[4-(2-fluoro-3-methylpyridin-4-yl)benzenesulfonyl]-6-hydroxy-4-oxo-1,4-dihydropyrimidin-1-yl}-2,3-dihydro-1H-indene-5-carbonitrile], for which the 50% effective concentration (EC50) was in the range of 10 to 100 nM.
Take `CCCCc1nc(=O)c(S(=O)(=O)c2ccc(-c3cccc(C(=O)NC)c3)cc2)c(O)n1[C@@H]1CCc2ccc(C#N)cc21` [Example 543, 4′-({2-butyl-1-[(1R)-6-cyano-2,3-dihydro-1H-inden-1-yl]-6-hydroxy-4-oxo-1,4-dihydropyrimidin-5-yl}sulfonyl)-N-methyl-[1,1′-biphenyl]-3-carboxamide]: the EC50 fell in the range of 10 to 100 nM.
Regarding `CCCCc1nc(=O)c(S(=O)(=O)c2ccc(-c3ccncc3C)cc2)c(O)n1[C@@H]1CCc2ccc(C#N)cc21` [Example 544, (3R)-3-{2-butyl-6-hydroxy-5-[4-(3-methylpyridin-4-yl)benzenesulfonyl]-4-oxo-1,4-dihydropyrimidin-1-yl}-2,3-dihydro-1H-indene-5-carbonitrile], the EC50 was in the range of 10 to 100 nM.
As for `CCCCc1nc(=O)c(S(=O)(=O)c2ccc(-c3ccc(C(=O)NC)cc3F)cc2)c(O)n1[C@@H](CC)c1cccc(C#N)c1` [Example 545, 4′-({2-butyl-1-[(1S)-1-(3-cyanophenyl)propyl]-6-hydroxy-4-oxo-1,4-dihydropyrimidin-5-yl}sulfonyl)-2-fluoro-N-methyl-[1,1′-biphenyl]-4-carboxamide], the half-maximal effective concentration (EC50) was in the range of 0.01 to 10 nM.
For the molecule `CCCCc1nc(=O)c(S(=O)(=O)c2ccc(-c3ccc(F)nc3C)cc2)c(O)n1[C@@H]1CCc2ccc(C#N)cc21` [Example 546, (3R)-3-{2-butyl-5-[4-(6-fluoro-2-methylpyridin-3-yl)benzenesulfonyl]-6-hydroxy-4-oxo-1,4-dihydropyrimidin-1-yl}-2,3-dihydro-1H-indene-5-carbonitrile], the half-maximal effective concentration (EC50) lay in the range of 100 to 300 nM.
`CCCCc1nc(=O)c(S(=O)(=O)c2ccc(-c3cccnc3C)cc2)c(O)n1[C@@H]1CCc2ccc(C#N)cc21` [Example 547, (3R)-3-{2-butyl-6-hydroxy-5-[4-(2-methylpyridin-3-yl)benzenesulfonyl]-4-oxo-1,4-dihydropyrimidin-1-yl}-2,3-dihydro-1H-indene-5-carbonitrile]: the concentration for a half-maximal effect (EC50) lay in the range of 10 to 100 nM.
